Where a name gives a salt, the structure may show the parent alone.

In one assay the target is T1, NOS1 (nNOS) (Homo sapiens, UniProt P29475).
T1 construct: made in house
Description: NOS1 enzymatic activity: conversion of 14-C-L-arginine to L-citrulline. The class given is biochemical. As to the method:
(§1) The enzymatic activity of purified NOS1, NOS2, or NOS3 to convert radiolabeled L-arginine to L-citrulline was assessed in presence or absence of different concentrations of (A) hydroxocobalamin, (B) cobinamide, (C) dicyanocobinamide, or (D) cyanocobalamin. Results are expressed as percent inhibition.
(§2) The effect of methylcobalamin (not exposed to light or exposed to light) on nNOS is shown in FIG. 3A; its effect on iNOS is shown in FIG. 3B. The effect of adenosylcobalamin (not exposed to light or exposed to light) on nNOS is shown in FIG. 3C; its effect on iNOS is shown in FIG. 3D. The agents were protected from light or exposed to light for 60 minutes. The enzyme assays were done in near-dark conditions (as low light as possible). Light removes the methyl- or adenosyl-group from the agent resulting in hydroxocobalamin.
(§3) Briefly, cells were treated with 500 units/ml of murine interferon-gamma for 24 hours, incubated with 10 uM DAF-FM for 30 minutes, and washed. Then the cells were then assessed for fluorescence in a platereader fluorimeter. The degree of NO formation is proportional to the degree of fluorescence of DfAF-FM. To determine NOS activity, we incubated 14-C-labeled-L-arginine was at 37° C. with 5 nM recombinant NOS1, NOS2 or NOS3 with HEPES buffer, dithiothreitol, tetrahydrobiopterin, FAD, and NADPH in the absence or presence of different concentrations of the compound in question for 60 minutes (27, 28). The reaction was stopped by adding excess L-citrulline, after which 14-C-labeled L-arginine was separated from 14-C-labeled citrulline using a Dowex-50 column (with the 14-C-labeled L-arginine being bound to the Dowex-50, and 14-C-labeled citrulline eluting free from the column). Radioactivity was determined with a scintillation counter, and percentage NOS inhibition was calculated. We determined that none of the compounds quenched detection of the radioactivity. Spectroscopy was determined using a Hitachi U2010 spectrometer (San Jose, Calif.) as noted before (17, 24, 25).

The next assay has as its target T2, NOS2 (iNOS) (Homo sapiens, UniProt P35228).
T2 construct: made in house
Description: NOS2 enzymatic activity: conversion of 14-C-L-arginine to L-citrulline. The assay is classed as biochemical. On the procedure:
as §1, §2, §3

Assay [1] can be described thus: UV/Vis spectroscopy of reaction of agent with NO. The class given is binding. As to the method: NO reacts with OH-Cbl as indicated by the change in the UV/Vis spectrum (shift of peak from 352 nm to 354-355 nm, and alteration in the 520 nm region).
as §3, with “25). […]” for “25).”

For assay [2] the following is noted: stated as known; cited from earlier work.
For assay [3], the target named is T3, purified, recombinant NOS2 (Homo sapiens, UniProt P35228).
T3 construct: made in house
T3 sequence (P35228 whole entry): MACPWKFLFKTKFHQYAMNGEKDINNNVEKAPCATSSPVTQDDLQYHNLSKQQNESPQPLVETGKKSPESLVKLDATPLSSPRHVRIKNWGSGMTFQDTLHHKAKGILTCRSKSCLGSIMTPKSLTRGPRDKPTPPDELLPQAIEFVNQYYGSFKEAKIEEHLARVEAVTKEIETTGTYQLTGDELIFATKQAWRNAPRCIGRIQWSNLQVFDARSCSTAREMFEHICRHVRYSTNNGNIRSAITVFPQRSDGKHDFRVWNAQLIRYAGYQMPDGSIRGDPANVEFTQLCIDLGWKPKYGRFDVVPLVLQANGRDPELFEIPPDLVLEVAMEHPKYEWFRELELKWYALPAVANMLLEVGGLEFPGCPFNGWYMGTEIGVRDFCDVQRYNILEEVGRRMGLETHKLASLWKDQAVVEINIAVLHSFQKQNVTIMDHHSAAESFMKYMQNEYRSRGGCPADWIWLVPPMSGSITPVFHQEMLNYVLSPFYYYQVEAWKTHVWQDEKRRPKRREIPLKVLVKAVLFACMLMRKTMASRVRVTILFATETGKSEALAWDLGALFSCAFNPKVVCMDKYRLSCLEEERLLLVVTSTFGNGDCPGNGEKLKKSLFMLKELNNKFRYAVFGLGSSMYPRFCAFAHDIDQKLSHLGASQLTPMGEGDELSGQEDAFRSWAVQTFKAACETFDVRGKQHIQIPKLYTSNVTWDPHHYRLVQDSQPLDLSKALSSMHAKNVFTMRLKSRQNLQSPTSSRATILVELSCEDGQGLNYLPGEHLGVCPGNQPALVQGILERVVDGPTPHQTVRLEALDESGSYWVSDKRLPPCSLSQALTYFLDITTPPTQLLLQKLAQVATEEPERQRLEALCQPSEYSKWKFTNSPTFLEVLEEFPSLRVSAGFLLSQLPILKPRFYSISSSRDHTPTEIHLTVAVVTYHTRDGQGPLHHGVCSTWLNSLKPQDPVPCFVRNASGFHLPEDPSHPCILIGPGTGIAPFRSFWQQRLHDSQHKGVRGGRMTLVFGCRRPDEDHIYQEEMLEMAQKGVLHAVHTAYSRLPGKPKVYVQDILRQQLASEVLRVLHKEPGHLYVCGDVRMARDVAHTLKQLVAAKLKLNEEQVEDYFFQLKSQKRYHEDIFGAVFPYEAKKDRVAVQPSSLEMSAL
Description: UV/Vis spectroscopy of CO binding to reduced NOS2 heme. The following applies: reduced conditions (dithionite), CO as oxygen mimic. From the text: Oxygen reacts directly with the reduced iron of the heme group in NOS. Carbon monoxide (CO) (that simulates O2 in binding to the reduced iron) was used to determine the influence of CN2-Cbi on oxygen binding to NOS. The reaction of purified NOS2 with CO in a reduced state (dithionite) markedly changed the UV/Vis spectrum, with appearance of the typical CO-bound Fe^+2-heme peak at 445 nm (FIG. 4A). However, in the presence of CN2-Cbi, there was no appearance of the 445 nm peak induced by CO in a reduced state (FIG. 4B).
Briefly, cells were treated with 500 units/ml of murine interferon-gamma for 24 hours, incubated with 10 uM DAF-FM for 30 minutes, and washed. Then the cells were then assessed for fluorescence in a platereader fluorimeter. The degree of NO formation is proportional to the degree of fluorescence of DfAF-FM. […] Radioactivity was determined with a scintillation counter, and percentage NOS inhibition was calculated. We determined that none of the compounds quenched detection of the radioactivity. Spectroscopy was determined using a Hitachi U2010 spectrometer (San Jose, Calif.) as noted before (17, 24, 25). […]

A further assay relates to J774 cells. Description: NO formation by activated J774 mouse macrophage cells. The conditions noted are these: interferon-gamma and endotoxin, 3 days, 0 to 62.5 uM. The assay is classed as cell-based. As to the method:
(§4) Cells of the mouse macrophage cell line J774 were incubated 3 days with 10 ng/ml endotoxin and 100 units/ml murine interferon gamma to activate the macrophage-like cells for NO production. The cultures also contained 0 to 62.5 uM dicyanocobinamide for the 3 days. At the end of the culture period, supernatant cell NO production was determined. […] Cells of the mouse macrophage cell line Raw 264 were incubated 24 hours with 100 units/ml murine interferon gamma to activate the macrophage-like cells for NO production. The cultures also contained 0, 0.5, 2.0, or 8.0 uM dicyanocobinamide for the entire culture period. At the end of the culture period the cells were assessed for NO production using DAF-MN and a fluorimeter. Results are expressed as percent inhibition. The error bars show the SEM.
We prepared highly purified, recombinant NOS1 and NOS2 (24,25). Recombinant bovine NOS3 was purchased from Cayman (Ann Arbor, Mich.). Tetrahydrobiopterin and carboxy-PTIO {2-(4-Carboxyphenyl)-4,4,5,5-tetramethylimidazoline-1-oxyl-3-oxide (potassium salt)} were from Alexis (San Diego, Calif.). 14-C-labeled L-arginine and 14-C-labeled citrulline were from Amersham/GE Healthcare (Waukesha, Wis.). […] NO levels were measured using a “Nitric Oxide Analyzer” (Sievers, Boulder, Colo.) or using diaminofluorescein-FM (4-amino-5-methylamino-2′,7′-difluorofluorescein) from Invitrogen-Molecular Probes.

A further assay relates to Raw 264 cells. Description: NO formation by activated Raw 264 mouse macrophage cells (DAF-FM fluorescence). The assay is classed as cell-based. The conditions noted are these: interferon-gamma, 24 hours, 0, 0.5, 2.0, or 8.0 uM. On the procedure:
as §4
We prepared highly purified, recombinant NOS1 and NOS2 (24,25). […] NO levels were measured using a “Nitric Oxide Analyzer” (Sievers, Boulder, Colo.) or using diaminofluorescein-FM (4-amino-5-methylamino-2′,7′-difluorofluorescein) from Invitrogen-Molecular Probes.
Briefly, cells were treated with 500 units/ml of murine interferon-gamma for 24 hours, incubated with 10 uM DAF-FM for 30 minutes, and washed. Then the cells were then assessed for fluorescence in a platereader fluorimeter. The degree of NO formation is proportional to the degree of fluorescence of DfAF-FM. […]

[4] abbreviates: after light illumination of the agent.

Regarding `C/C1=C2/[N-][C@H]([C@H](CC(N)=O)[C@@]2(C)CCC(=O)NC[C@H](C)OP(=O)([O-])O[C@H]2[C@@H](O)[C@@H](n3cnc4cc(C)c(C)cc43)O[C@@H]2CO)[C@]2(C)N=C(/C(C)=C3N=C(/C=C4N=C1[C@@H](CCC(N)=O)C\4(C)C)[C@@H](CCC(N)=O)[C@]\3(C)CC(N)=O)[C@@H](CCC(N)=O)[C@]2(C)CC(N)=O.[CH3-].[Co+3]` [Methylcobalamin], the “NOS1 inhibition (in words)” value on NOS1 (nNOS) (setting [4]) is on record as “inhibitory activity (comparable to native OH-Cbl)”; on NOS1 (nNOS) (agent not exposed to light), “very little ability to inhibit NOS activity”. For the same compound, the “NOS2 inhibition (in words)” value on NOS2 (iNOS) (setting [4]) was “inhibitory activity (comparable to native OH-Cbl)”; at NOS2 (iNOS) (agent not exposed to light), “very little ability to inhibit NOS activity”.

`C/C1=C2/[N-][C@H]([C@H](CC(N)=O)[C@@]2(C)CCC(=O)NC[C@@H](C)OP(=O)([O-])O[C@H]2[C@@H](O)[C@@H](n3cnc4cc(C)c(C)cc43)O[C@@H]2CO)[C@]2(C)N=C(/C(C)=C3N=C(/C=C4N=C1[C@@H](CCC(N)=O)C\4(C)C)[C@@H](CCC(N)=O)[C@]\3(C)CC(N)=O)[C@@H](CCC(N)=O)[C@]2(C)CC(N)=O.[Co+3].[OH-]` [Hydroxocobalamin]: the “NOS1 inhibition (in words)” value on NOS1 (nNOS) (purified recombinant NOS1) is recorded as “potent”. Also, the “NOS2 inhibition (in words)” value at NOS2 (iNOS) (purified recombinant NOS2) is on record as “potent”. The “reaction with NO (change in UV/visible spectrum)” value in assay [1] is recorded as “reacted”. Besides, the “ability to bind and scavenge NO” value in assay [2] was “able to bind and scavenge NO”.

Regarding `CC1(C)N([O])C(c2ccc(C(=O)O)cc2)=[N+]([O-])C1(C)C` [Carboxy-PTIO, 2-(4-Carboxyphenyl)-4,4,5,5-tetramethylimidazoline-1-oxyl-3-oxide (potassium salt)], the “NOS1 inhibition (in words)” value on NOS1 (nNOS) (purified recombinant NOS1) is listed as “does not inhibit NOS”. For the same compound, the EC50 at NOS1 (nNOS) (purified recombinant NOS1, 5 nM, 60 minutes, 37° C., read-out: ED50 NOS1) worked out at 1360 µM; at NOS2 (iNOS) (purified recombinant NOS2, 5 nM, 60 minutes, 37° C., read-out: ED50 NOS2) it was 1360 µM. Besides, at NOS2 (iNOS) (purified recombinant NOS2), the “NOS2 inhibition (in words)” value is on record as “does not inhibit NOS”.

Turning to `C/C1=C2/[N-][C@H]([C@H](CC(N)=O)[C@@]2(C)CCC(=O)NC[C@@H](C)OP(=O)([O-])O[C@H]2[C@@H](O)[C@@H](n3cnc4cc(C)c(C)cc43)O[C@@H]2CO)[C@]2(C)N=C(/C(C)=C3N=C(/C=C4N=C1[C@@H](CCC(N)=O)C\4(C)C)[C@@H](CCC(N)=O)[C@]\3(C)CC(N)=O)[C@@H](CCC(N)=O)[C@]2(C)CC(N)=O.[CH2-][C@H]1O[C@@H](n2cnc3c(N)ncnc32)[C@H](O)[C@@H]1O.[Co]` [Adenosylcobalamin], the results for the “NOS1 inhibition (in words)” value on NOS1 (nNOS) (setting [4]) and at NOS1 (nNOS) (agent not exposed to light) were “inhibitory activity (comparable to native OH-Cbl)” and “very little ability to inhibit NOS activity”, respectively. Moreover, the “NOS2 inhibition (in words)” value was “inhibitory activity (comparable to native OH-Cbl)” on NOS2 (iNOS) (setting [4]) and “very little ability to inhibit NOS activity” at NOS2 (iNOS) (agent not exposed to light).

Consider `C/C1=C2/[N-]C([C@H](CC(N)=O)[C@@]2(C)CCC(=O)NCC(C)O)[C@]2(C)N=C(/C(C)=C3N=C(/C=C4N=C1[C@@H](CCC(N)=O)C\4(C)C)[C@@H](CCC(N)=O)[C@]\3(C)CC(N)=O)[C@@H](CCC(N)=O)[C@]2(C)CC(N)=O.[C-]#N.[C-]#N.[Co]` (stereo partly drawn) [Dicyanocobinamide], for which the “NOS1 inhibition (in words)” value on NOS1 (nNOS) (purified recombinant NOS1) is listed as “potent”. Further, the “NOS2 inhibition (in words)” value at NOS2 (iNOS) (purified recombinant NOS2) is given as “potent”. The “CO-induced spectral changes in NOS2 (445 nm peak)” value in assay [3] is on record as “markedly diminished”. Besides, in assay [1], the “reaction with NO (change in UV/visible spectrum)” value is listed as “did not react”. The “inhibition of NO production” value in the assay on J774 cells and in the assay with Raw 264 cells was “dose-dependent inhibition” in each case.

Turning to Cyanocobalamin, the “NOS1 inhibition (in words)” value at NOS1 (nNOS) (purified recombinant NOS1) was “much less activity”. The “NOS2 inhibition (in words)” value on NOS2 (iNOS) (purified recombinant NOS2) is given as “much less activity”.

Turning to `C/C1=C2/[N-][C@H]([C@H](CC(N)=O)[C@@]2(C)CCC(=O)NC[C@@H](C)O)[C@]2(C)N=C(/C(C)=C3N=C(/C=C4N=C1[C@@H](CCC(N)=O)C\4(C)C)[C@@H](CCC(N)=O)[C@]\3(C)CC(N)=O)[C@@H](CCC(N)=O)[C@]2(C)CC(N)=O.[Co+3]` [Cobinamide], the “NOS1 inhibition (in words)” value at NOS1 (nNOS) (purified recombinant NOS1) was “potent”. Moreover, at NOS2 (iNOS) (purified recombinant NOS2), the “NOS2 inhibition (in words)” value is recorded as “potent”. The “ability to bind and scavenge NO” value in assay [2] was “able to bind and scavenge NO”.
